Source: patent publication US20090082350A1, “SOLUBLE EPOXIDE HYDROLASE INHIBITORS” (Arete Therapeutics, Inc., priority 2007, published 2009)

How the values were obtained:
[1] = system: soluble epoxide hydrolase (sEH); assay: Fluorescent assay for mouse and human soluble epoxide hydrolase (CMNPC substrate); format: biochemical
Text: Fluorescent Assay for Mouse and Human Soluble Epoxide Hydrolase
Recombinant mouse sEH (MsEH) and human sEH (HsEH) were produced in a baculovirus expression system as previously reported. Grant et al., J. Biol. Chem., 268:17628-17633 (1993); Beetham et al., Arch. Biochem. Biophys., 305:197-201 (1993). The expressed proteins were purified from cell lysate by affinity chromatography. Wixtrom et al., Anal. Biochem., 169:71-80 (1988). Protein concentration was quantified using the Pierce BCA assay using bovine serum albumin as the calibrating standard. The preparations were at least 97% pure as judged by SDS-PAGE and scanning densitometry. They contained no detectable esterase or glutathione transferase activity which can interfere with the assay. The assay was also evaluated with similar results in crude cell lysates or homogenate of tissues.
The IC50s for each inhibitor were according to the following procedure:
Cyano(2-methoxynaphthalen-6-yl)methyl (3-phenyloxiran-2-yl)methyl carbonate (CMNPC; Jones P. D. et. al.; Analytical Biochemistry 2005; 343: pp. 66-75)
Bis/Tris HCl 25 mM pH 7.0 containing 0.1 mg/mL of BSA (buffer A)
CMNPC at 0.25 mM in DMSO.
Mother solution of enzyme in buffer A (Mouse sEH at 6 μg/mL and Human sEH at […]).
Inhibitor dissolved in DMSO at the appropriate concentration.
In a black 96 well plate, fill all the wells with 150 μL of buffer A.
Add 2 μL of DMSO in well A2 and A3, and then add 2 μL of inhibitor solution in A1 and A4 through A12.
Add […] of buffer A in row A, then mix several time and transfer 150 L to row B. Repeat this operation up to row H. The 150 L removed from row H go to the trash.
Add […] of buffer A in column 1 and 2, then add […] of enzyme solution to column 3 to 12.
Incubate the plate for 5 minutes in the plate reader at 30° C.
During incubation prepare the working solution of substrate by mixing 3.68 mL of buffer A (4×0.920 mL) with 266 μL (2×133 μL) of substrate solution).
At t=0, add 30 L of working substrate solution with multi-channel pipette labeled “Briggs 303” and start the reading ([S]final: 5 μM).
Read with ex: 330 nm (20 nm) and em: 465 nm (20 nm) every 30 second for 10 minutes. The velocities are used to analyze and calculate the IC50s.

[2] = inhibitor concentration 5000 nM
[3] = inhibitor concentration 50000 nM

SMILES | melting point [°C] | % Inh ([1]; inhibitor concentration 50 nM) [%] | other results
COc1ccc(-c2cc(NC(=O)NC34CC5CC(CC(C5)C3)C4)[nH]n2)cc1 [Compound 1, 1-adamantan-1-yl-3-(3-(4-methoxyphenyl)-1H-pyrazol-5-yl)urea] | – | – | % Inh [1, 2]: 89%
COc1ccc(-c2cc(NC(=O)Nc3ccc(C(F)(F)F)cc3)[nH]n2)cc1 [Compound 2, 1-(3-(4-methoxyphenyl)-1H-pyrazol-5-yl)-3-(4-(trifluoromethyl)phenyl)urea] | 228 to 231 | – | % Inh ([1]; inhibitor concentration 500 nM): 89%
O=C(Nc1ccc(C(F)(F)F)cc1)Nc1ccc(C(=O)N2CCOCC2)s1 [Compound 3, 1-(5-(morpholine-4-carbonyl)thiophen-2-yl)-3-(4-(trifluoromethyl)phenyl)urea] | 250 to 253 | 98 | –
CC(=O)Nc1ccc(NC(=O)NC23CC4CC(CC(C4)C2)C3)cn1 [Compound 4, N-(5-(3-adamantylureido)pyridin-2-yl)acetamide] | 252 to 254 | 77 | –
COc1ccc(-c2cc(NC(=O)Nc3cccc(C(F)(F)F)c3)[nH]n2)cc1 [Compound 5, 1-(3-(4-methoxyphenyl)-1H-pyrazol-5-yl)-3-(3-(trifluoromethyl)phenyl)urea] | 189 to 194 | – | % Inh [1, 2]: 92%
CC(=O)Nc1ccc(NC(=O)Nc2ccc(Cl)cc2)cn1 [Compound 6, N-(5-(3-(4-chlorophenyl)ureido)pyridin-2-yl)acetamide] | 269 to 271 | – | % Inh ([1]; inhibitor concentration 500 nM): 87%
COc1ccc(NC(=O)NC23CC4CC(CC(C4)C2)C3)cn1 [Compound 7, 1-adamantan-1-yl-3-(6-methoxypyridin-3-yl)urea] | 205 to 211 | 64 | –
O=C(Nc1ccc(C(F)(F)F)cc1)Nc1ccc(C(=O)N2CCOCC2)cn1 [Compound 8, 1-(5-(morpholine-4-carbonyl)pyridin-2-yl)-3-(4-(trifluoromethyl)phenyl)urea] | 233 to 237 | – | % Inh ([1]; inhibitor concentration 500 nM): 69%
COc1ccc(-c2nnc(NC(=O)NC34CC5CC(CC(C5)C3)C4)s2)cc1 [Compound 9, 1-adamantan-1-yl-3-(5-(4-methoxyphenyl)-1,3,4-thiadiazol-2-yl)urea] | 324 to 328 | – | % Inh [1, 3]: 37%
COc1ccc(-c2nnc(NC(=O)Nc3cccc(C(F)(F)F)c3)s2)cc1 [Compound 10, 1-(5-(4-methoxyphenyl)-1,3,4-thiadiazol-2-yl)-3-(3-(trifluoromethyl)phenyl)urea] | 331 to 336 | – | % Inh ([1]; inhibitor concentration 12500 nM): 39%
O=C(Nc1ccc(Cl)cc1)Nc1ccc(C(=O)N2CCOCC2)s1 [Compound 11, 1-(4-chlorophenyl)-3-(5-(morpholine-4-carbonyl)thiophen-2-yl)urea] | 242 to 245 | 76 | –
O=C(Nc1ccc(C(F)(F)F)cc1)Nc1cccc(C(=O)N2CCOCC2)n1 [Compound 12, 1-(6-(morpholine-4-carbonyl)pyridin-2-yl)-3-(4-(trifluoromethyl)phenyl)urea] | 208 to 210 | – | % Inh [1, 3]: 96%
O=C(Nc1ccc(C(F)(F)F)cc1)Nc1cc(C(=O)N2CCOCC2)cs1 [Compound 13, 1-(4-(morpholine-4-carbonyl)thiophen-2-yl)-3-(4-(trifluoromethyl)phenyl)urea] | 250 to 253 | 73 | –
O=C(Nc1cccc(C(F)(F)F)c1)Nc1cc(C(=O)N2CCOCC2)cs1 [Compound 14, 1-(4-(morpholine-4-carbonyl)thiophen-2-yl)-3-(3-(trifluoromethyl)phenyl)urea] | 210 to 215 | – | % Inh [1, 2]: 89%
O=C(Nc1ccc(C(F)(F)F)cc1)Nc1ccc(Oc2ccccc2)nc1 [Compound 15, 1-(6-phenoxypyridin-3-yl)-3-(4-(trifluoromethyl)phenyl)urea] | – | 90 | –
O=C(Nc1ccc(Oc2ccccc2)nc1)NC12CC3CC(CC(C3)C1)C2 [Compound 16, 1-adamantan-1-yl-3-(6-phenoxypyridin-3-yl)urea] | 185 to 188 | 95 | –
O=C(Nc1ccc(C(F)(F)F)cc1)Nc1cc(C(=O)N2CCOCC2)ccn1 [Compound 17, 1-(4-(morpholine-4-carbonyl)pyridin-2-yl)-3-(4-(trifluoromethyl)phenyl)urea] | 200 to 206 | – | % Inh ([1]; inhibitor concentration 500 nM): 91%
O=C(Nc1ccc(Cl)cc1)Nc1cccc(C(=O)N2CCOCC2)n1 [Compound 18, 1-(4-chlorophenyl)-3-(6-(morpholine-4-carbonyl)pyridin-2-yl)urea] | 205 to 208 | – | % Inh [1, 3]: 87%
O=C(Nc1ccc(Cl)cc1)Nc1cc(C(=O)N2CCOCC2)ccn1 [Compound 19, 1-(4-chlorophenyl)-3-(4-(morpholine-4-carbonyl)pyridin-2-yl)urea] | 189 to 192 | – | % Inh ([1]; inhibitor concentration 500 nM): 72%
O=C(Nc1cccc(C(F)(F)F)c1)Nc1cccc(C(=O)N2CCOCC2)n1 [Compound 20, 1-(6-(morpholine-4-carbonyl)pyridin-2-yl)-3-(3-(trifluoromethyl)phenyl)urea] | 175 to 179 | – | % Inh [1, 3]: 96%
CCOC(=O)c1cnc(NC(=O)NC23CC4CC(CC(C4)C2)C3)s1 [Compound 21, ethyl 2-(3-adamantylureido)thiazole-5-carboxylate] | – | – | % Inh ([1]; inhibitor concentration 500 nM): 97%
COc1ccc(-c2cc(NC(=O)Nc3ccc(Cl)cc3)on2)cc1 [Compound 22, 1-(4-chlorophenyl)-3-(3-(4-methoxyphenyl)isoxazol-5-yl)urea] | 165 to 170 | – | % Inh [1, 2]: 92%
O=C(Nc1ccc(C(F)(F)F)cc1)Nc1cncc(C(=O)N2CCOCC2)c1 [Compound 23, 1-(5-(morpholine-4-carbonyl)pyridin-3-yl)-3-(4-(trifluoromethyl)phenyl)urea] | 114 to 118 | – | % Inh ([1]; inhibitor concentration 500 nM): 75%
O=C(Nc1cncc(C(=O)N2CCOCC2)c1)Nc1cccc(C(F)(F)F)c1 [Compound 24, 1-(5-(morpholine-4-carbonyl)pyridin-3-yl)-3-(3-(trifluoromethyl)phenyl)urea] | 75 to 80 | – | % Inh [1, 2]: 60%
O=C(Nc1ncc(C(=O)O)s1)NC12CC3CC(CC(C3)C1)C2 [Compound 25, 2-(3-adamantylureido)thiazole-5-carboxylic acid] | – | – | % Inh [1, 3]: 81%
CCOC(=O)c1nnc(NC(=O)NC23CC4CC(CC(C4)C2)C3)s1 [Compound 26, ethyl 5-(3-adamantylureido)-1,3,4-thiadiazole-2-carboxylate] | – | 91 | –
